One experiment concerns the target T1, Endothelin-1 receptor (Rattus norvegicus, UniProt P26684).
T1 sequence (P26684 whole entry): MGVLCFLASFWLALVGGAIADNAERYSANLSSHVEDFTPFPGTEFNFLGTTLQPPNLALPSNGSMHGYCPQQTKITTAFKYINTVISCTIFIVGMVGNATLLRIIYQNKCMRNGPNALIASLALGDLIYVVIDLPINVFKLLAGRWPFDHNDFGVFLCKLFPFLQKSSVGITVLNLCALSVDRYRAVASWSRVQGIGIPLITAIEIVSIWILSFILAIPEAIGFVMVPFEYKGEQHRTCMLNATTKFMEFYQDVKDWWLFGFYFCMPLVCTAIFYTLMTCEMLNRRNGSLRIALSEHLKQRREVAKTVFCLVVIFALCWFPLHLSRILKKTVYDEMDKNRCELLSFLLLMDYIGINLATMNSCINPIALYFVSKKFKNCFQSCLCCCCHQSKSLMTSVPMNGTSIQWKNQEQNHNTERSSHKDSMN
Description: Inhibition of [125I]ET1 binding to rat aorta membranes(ETA). Type of experiment: cell membranes, Membrane.
Conditions: not given
Turning to `CCOc1ccc2c(c1)c(-c1ccc(OC)cc1)c(C(=O)O)c(=O)n2Cc1ccccc1OC`, the IC50 stood at 1.3 µM.
Compound `COc1ccc(Cn2c(=O)c(C(=O)O)c(-c3ccc4c(c3)OCO4)c3ccccc32)cc1` had a half-maximal inhibitory concentration (IC50) of 2.4 µM.
The same measure, in the same setting: the figure for `O=C(O)c1c(-c2ccc3c(c2)OCO3)c2ccccc2n(Cc2ccccc2)c1=O` is above 10 µM.
The same measure, in the same setting: then `CCOc1ccc2c(c1)c(-c1ccc3c(c1)OCO3)c(C(=O)O)c(=O)n2Cc1ccccc1OC`, with 0.38 µM; and `CCOc1ccc2c(c1)c(-c1ccc3c(c1)OCO3)c(C(=O)O)n2Cc1ccc(OC)cc1`, with 130 µM; and `CCOc1ccc2c(c1)c(-c1ccc(OC)cc1OC)c(C(=O)O)c(=O)n2Cc1ccccc1OC`, with 1.2 µM.
Same read-out and setting: the figure for `COc1ccccc1Cn1c(=O)c(C(=O)O)c(-c2ccc3c(c2)OCO3)c2ccccc21` is 2 µM; for `O=C(O)c1c(-c2ccc3c(c2)OCO3)c2ccccc2n(Cc2ccc3c(c2)OCO3)c1=O` it is 2.6 µM.
Compound `CCc1ccc2c(c1)c(-c1ccc3c(c1)OCO3)c(C(=O)O)c(=O)n2Cc1ccccc1OC` gave a half-inhibitory concentration (IC50) of 1.5 µM.
In the case of `COc1ccccc1Cn1c(=O)c(C(=O)O)c(-c2ccc3c(c2)OCO3)c2c(OC)c(OC)ccc21`, the IC50 came out at 3.3 µM.
`COc1ccccc1Cn1c(=O)c(CC(=O)O)c(-c2ccc3c(c2)OCO3)c2ccccc21` showed an IC50 above 10 µM.
Turning to `COc1cccc(Cn2c(=O)c(C(=O)O)c(-c3ccc4c(c3)OCO4)c3ccccc32)c1`, the IC50 was above 10 µM.
With `CCOc1ccc2c(c1)c(-c1ccc(OC)cc1)c(C(=O)O)c(=O)n2Cc1cc(OC)ccc1OC`, the half-maximal inhibitory concentration (IC50) worked out at 0.26 µM.

The target in another experiment is T1, Endothelin-1 receptor. Put plainly: Functional antagonism against ETA receptor in rat aortic rings expressed as pA2 value. The following applies: read-out: pA2 (converted).
Consider `CCOc1ccc2c(c1)c(-c1ccc3c(c1)OCO3)c(C(=O)O)n2Cc1ccc(OC)cc1`, for which the Kb is 0.398 µM.
With `CCOc1ccc2c(c1)c(-c1ccc(OC)cc1)c(C(=O)O)c(=O)n2Cc1cc(OC)ccc1OC`, the Kb was 6.31 µM.

The values above are taken from ChEMBL document CHEMBL1130488, “1,4-Diaryl-2-oxo-1,2-dihydro-quinoline-3-carboxylic acids as endothelin receptor antagonists” (Bioorg Med Chem Lett, 1997).
